Experimental data as given in ChEMBL document CHEMBL3507680, “University of Dundee, Gates Library screen for HepG2 cell viability”.

Assay: Human HepG2 cell viability assay in 384 well format
Format: toxicity, cell-based
Set-up: dose 125 nL, time 70.5 hour; concentration not given beside the values
Settings: HepG2 cells, read-out: Inhibition

| Structure (SMILES) | cytotoxicity at 70.5 h |
| --- | --- |
| Cc1ccc(F)c(C(=O)N2C[C@@H](C(=O)O)[C@H](c3ccncc3)C2)c1Cl | -8.75% |
| Cc1cc(CN2C[C@H]3CCC[C@@]3(COCC3CCOCC3)C2)no1 | 0.596% |
| COCc1ccccc1CNCc1c(C(C)C)nn(C)c1N(C)C | -0.306% |
| Cc1cc(C)n(C2CCCN(C(=O)Cn3ccc(=O)n(C)c3=O)C2)n1 (stereo not drawn) | -7.57% |
| CC(C)(C)OC(=O)N1CCC(C(=O)NCc2ccccc2)C1 (stereo not drawn) | 7.59% |
| COc1ccc(CN2C[C@@H]3OCCN(c4ncccn4)[C@@H]3C2)cc1 | -7.28% |
| CN1CC2(CCN(C(=O)Cc3ccccn3)CC2)OCC1=O | -5.16% |
| Cn1ccc(C(=O)NCc2ccc(Cn3ccnc3)cc2)cc1=O | -1.16% |
| Cc1noc(C2CCCCN2C(=O)NCc2ccco2)n1 (stereo not drawn) | -19.9% |
| COc1ncccc1CNC(=O)N1CCCC1c1ccsc1 (stereo not drawn) | -0.312% |
| CC(CNC(=O)CCCn1cncn1)N1CCc2ccccc2C1 (stereo not drawn) | 11.6% |
| Cc1nc2oc(C(=O)N3CCCC3)c(N)c2c2c1CCCC2 | -16.9% |
| O=C(Cn1ccnc1)N1C[C@@H]2CC[C@H](Oc3ccccc3)[C@@H]2C1 | -3% |
| CC(C)(C)CC(NC(=O)N1CCS(=O)(=O)CC1)C(F)(F)F (stereo not drawn) | -4.28% |
| CNS(=O)(=O)c1cccc(CNc2ccc(C(F)(F)F)nn2)c1 | -3.47% |
| CCC[C@H]1CN(c2nccc(OC)n2)C[C@@H]1NS(=O)(=O)N(C)C | 0.969% |
| CC/C=C(/C)C(=O)NS(=O)(=O)c1ccc(C#N)cc1C(F)(F)F | -7.29% |
| COc1ccc(C(=O)NCCNC(=O)c2cncnc2C)cc1 | -8.47% |
| Cc1cc(C)n(-c2cncc(N3CCN(C(=O)C(C)(C)C)CC3)n2)n1 | 1.04% |
| CN(Cc1ccccc1)CC(O)Cn1cnc2ccsc2c1=O (stereo not drawn) | -8.61% |
| O=c1c(-c2ccnc(NC3CCOCC3)n2)cnc2sc(Cl)cn12 | 1.36% |
| CNC(=O)C1Cn2ccnc2C2(CCN(CCF)CC2)O1 (stereo not drawn) | -13.9% |
| O=C(CNC(=O)c1ccccc1F)NCc1ccccn1 | -7.71% |

| Structure (SMILES) | cytotoxicity at 70.5 h |
| --- | --- |
| NC(=O)C1(CNCc2csc(-c3cccs3)n2)CCOCC1 | -6.81% |
| COc1ccc([C@@H]2CN(C(=O)CCn3cccn3)C[C@H]2NC(C)=O)cc1 | 6.76% |
| O=C1CCCN1CCN1CC[C@@]2(O)CCN(c3ncccn3)C[C@H]2C1 | 15.5% |
| O=C([C@H]1C[C@H]2OCC[C@H]2N(C(=O)c2ccccn2)C1)N1CCCCO1 | -6.44% |
| CN(C)S(=O)(=O)NC(=O)CC(c1ccccc1)C(F)(F)F (stereo not drawn) | -2.07% |
| O=C(c1ccc2cc[nH]c2c1)N1CCCN(Cc2cscn2)CC1 | -2.03% |
| Cn1ncc2c1C(COCC1CC1)CN(C(=O)c1cscn1)C2 (stereo not drawn) | -7.06% |
| COCCCN1CC2(CCCCN2C(=O)C2CCCCC2)CC1=O (stereo not drawn) | -3.42% |
| CC(CN1CCOCC1)NC(=O)NCc1cccs1 (stereo not drawn) | -7.69% |
| CC(C)N(Cc1ccccc1)Cc1nnsc1Cl | -8.66% |
| Cc1cnc(CNc2ncc(C)c(-c3cnn(C)c3)n2)cn1 | -14.1% |
| O=C1CC2(CCSC2)C(=O)N1Cc1coc(-c2ccccc2)n1 (stereo not drawn) | 2.52% |
| Cc1cc(CCC(=O)N2CCCC2)nc(C2CCCN2)n1 (stereo not drawn) | -1.61% |
| CCS(=O)(=O)N1CCN(CC(F)(F)F)CC1 | -5.53% |
| Cc1ccc(C(C)NCc2cn(CCC(N)=O)c3ccccc23)cc1C (stereo not drawn) | -3.87% |
| O=C(NCc1ccccc1Cn1cncn1)C1CCCC1 | -3.85% |
| CCCSc1ccccc1NC(=O)N1CCN(C(=O)c2ccc[nH]2)CC1 | -1.4% |
| CCc1nc2n(n1)CC(NCc1ncc(-c3ccccc3)o1)CC2 (stereo not drawn) | -5.1% |
| CCC(C)NC(=O)CN1CCOCC1 (stereo not drawn) | -5.48% |
| CCCc1noc(C2CC(=O)N(C(C)(C)C)C2)n1 (stereo not drawn) | -16% |
| COc1ccc(OC)c(C2CCN(CC(C)(C)N3CCOCC3)C2)c1 (stereo not drawn) | -4.45% |
| CSCCC(Nc1nc(C)cc(C)n1)C(=O)NC1CC1 (stereo not drawn) | -10.9% |
| CC(C)CNC(=O)CNC(=O)NC(c1nccs1)C1CC1 (stereo not drawn) | 4.02% |

| Structure (SMILES) | cytotoxicity at 70.5 h |
| --- | --- |
| COCCC(C)NC(=O)N1CCC(n2ccc(C(F)(F)F)n2)CC1 (stereo not drawn) | -98.6% |
| CCN1C(=O)[C@]2(CC[C@@H]3CN(C(=O)NCC(C)C)C[C@@H]32)N=C1C | -2.72% |
| Cc1nn(CN(CC2CCOC2)C2CC2)c(=O)c2ccccc12 (stereo not drawn) | -3.01% |
| CCN1CC2(CC1=O)CN(C(=O)NC(C)C)CCN(C(=O)NC(C)C)C2 | -4.47% |
| NC1C=C(C(F)(F)F)NC=C1c1ccc(Cl)cc1 (stereo not drawn) | 3.46% |
| O=S(=O)(NCc1cn2ccccc2n1)N1CCOCC1 | -12.1% |
| CC1CN(CC(=O)Nc2ccncc2)CCN1Cc1nccn1C (stereo not drawn) | -0.423% |
| CN(C)S(=O)(=O)NCc1cccnc1Oc1ccccc1F | 1.78% |
| Cn1cncc1CN1CCC2(CC1)CCN2c1ncccn1 | -2.28% |
| Clc1cc(N2CCN(C3CCOCC3)CC2)nc2[nH]ccc12 | -0.399% |
| COCCN1CCCC(O)(CN2CCN(c3cc(C)ccn3)CC2)C1=O (stereo not drawn) | -0.635% |
| O=C(c1cc[nH]n1)N1CCCC1C1CCN(Cc2ccccc2)CC1 (stereo not drawn) | -3.3% |
| CCCC(C)NC1CCN(c2ccc(-n3ccnc3C)cc2)CC1 (stereo not drawn) | -2.41% |
| Cc1cc(N2CCN(CC(=O)N(C)C)CC2)nc(-c2ccncc2)n1 | 27.8% |
| Cc1cnn(CC2CCCN2C(=O)c2cc(C)nc3[nH]nc(C)c23)c1 (stereo not drawn) | -3.88% |
| N#Cc1ccc(CNCCc2cc(F)cc3c2OCOC3)cc1 | 7.73% |
| Cc1noc(C)c1-c1ccc(C2CCCN2C(=O)c2cccnc2)nc1 (stereo not drawn) | -4.62% |
| Fc1ccc(C2CN(c3ncnc4[nH]ncc34)CCO2)cc1 (stereo not drawn) | 12.2% |
| CCc1nc(CN2CCCN(C(=O)C3CCC3)CC2)cs1 | 5.44% |
| Cc1ncc(-c2ccnc(NCCc3ccc(F)cc3)n2)c(=O)[nH]1 | -12.9% |
| CC1CCN(CCNC(=O)C(C)n2cncn2)CC1 (stereo not drawn) | -2.14% |
| Cc1nn(C)c2cn(C(C)C(=O)NCc3ccccn3)nc12 (stereo not drawn) | -11.2% |
| Cc1cc(CC(C)NC(=O)COc2ccc(F)cc2F)[nH]n1 (stereo not drawn) | -5.3% |

| Structure (SMILES) | cytotoxicity at 70.5 h |
| --- | --- |
| CN(C)CCn1c(=O)oc2ccc(NC(=O)N3CCCCCC3)cc21 | 35.5% |
| Cc1csc(NC(=O)c2cccnc2N2CCOCC2)n1 | 18.7% |
| c1cn2c(n1)CN(CC1CC1)CC(CN1CCOCC1)C2 (stereo not drawn) | -7.21% |
| CN(C(=O)CSc1ccccn1)C1CCCN(CCc2ccccc2)C1 (stereo not drawn) | -7.26% |
| COc1ccc2c(c1)C(=O)N(C)C1(CCN(CC=C(C)C)CC1)N2 | -2.27% |
| CS(=O)(=O)c1ccccc1NC(=O)N[C@@H]1c2ccccc2C[C@@H]1O | 12.9% |
| CCn1ncnc1C(C)NC(=O)Cc1cc2c(cc1Cl)OCCO2 (stereo not drawn) | 1.43% |
| Cc1cnn(CC2CCCN2Cc2coc(-c3ccc(F)cc3)n2)c1 (stereo not drawn) | -115% |
| Cc1nc([C@H]2C[C@@H]3CCN(C(=O)c4ccnnc4)C[C@H]3O2)sc1C | -0.727% |
| NC(=O)c1ccc(CN2CCCC(O)C2)cc1 (stereo not drawn) | -3.47% |
| CCOCC1CCN(C(=O)C(c2cccc(F)c2)N(C)C)CC1 (stereo not drawn) | 27.9% |
| Cn1cc(-c2cc(C(F)(F)F)nn2CCC#N)cn1 | 11.5% |
| CN(C)C(=O)CN1CCN(C(=O)Cc2csc(-c3ncccn3)n2)CC1 | -4.31% |
| O=C(NCc1ccnc(OCC(F)(F)F)c1)NCC1COCCO1 (stereo not drawn) | -6.7% |
| CC(C)Nc1nc2c(c(NC3CC3)n1)CN(C(=O)c1ccsc1)CC2 | -17.2% |
| O=C(O)CCNC(=O)C1(c2cccc(Br)c2)CCOCC1 | -0.861% |
| COC1(CNS(=O)(=O)c2ccccc2Cl)CCSC1 (stereo not drawn) | -7.26% |
| Cc1nccn1-c1cc(CNC(=O)CC2CCCO2)ccn1 (stereo not drawn) | 16.3% |
| CC(C(=O)NC1CCCC1)S(=O)(=O)Cc1noc(C(C)(C)C)n1 (stereo not drawn) | 7.9% |
| Cc1ccc(C2(CN3CCN(Cc4cn(C)nc4C)CC3)CC2)cc1 | -11.3% |
| CCN1CCN(C(=O)c2c[nH]c(C(C)C)n2)c2ccccc21 | 2.09% |
| COc1ccc(CNC(=O)NCc2nc(C)c(C)s2)cn1 | -5.21% |
| O=C(NCc1nc(C2CC2)no1)N1CCOC(c2ccccc2F)C1 (stereo not drawn) | -3.4% |

| Structure (SMILES) | cytotoxicity at 70.5 h |
| --- | --- |
| COc1c(Br)cc(Cl)cc1NCc1c(C)noc1C | 11.5% |
| Cc1cnn(CC2CCCN2c2ncnc3sccc23)c1 (stereo not drawn) | 1.15% |
| NC(=O)c1cccc(OCC(=O)N2CCCC(n3ccnc3)C2)c1 (stereo not drawn) | -11.1% |
| O=C(c1ccncc1)N1CCOC2(COCCN(c3cncnc3)C2)C1 (stereo not drawn) | -11.1% |
| CCC1CCCN(C(=O)NCc2cccnc2-n2cccn2)C1 (stereo not drawn) | -4.16% |
| Cc1cc(N2CCN(Cc3ccccc3)CC(O)C2)cc(C)n1 (stereo not drawn) | 11.5% |
| Cc1cccc(CC(=O)NCCCOC(C)C)c1 | -10.5% |
| Cc1nc(CN2C[C@@H]3CCCO[C@@H]3[C@H](NC(=O)CC3CC3)C2)cs1 | -0.515% |
| CCc1cnc(CN2C(=O)CC3(CCSC3)C2=O)o1 (stereo not drawn) | 11.4% |
| O=C(CN1CC(c2nc(-c3ccco3)no2)C1)NCC1CCCO1 (stereo not drawn) | 13.7% |
| CC(=O)N1CC(=O)N(c2ccsc2)CC12CCN(Cc1ccoc1)C2 (stereo not drawn) | -11.1% |
| OC(CN(Cc1ccccc1)Cc1ccncc1)c1cccs1 (stereo not drawn) | 21.6% |
| Cc1cnc(CN(C)C2CCN(CCn3cc(C#N)cn3)C2)o1 (stereo not drawn) | 7.37% |
| C1CC(N2C[C@@H]3COC[C@]3(COCC3CCOCC3)C2)C1 | -1.94% |
| COc1ccc(NC(=O)Cn2nc(C)c(C)cc2=O)cc1Cl | 0.971% |
| CN(C)c1nccc(N2CCO[C@H]3CN(Cc4ccco4)C[C@H]32)n1 | 3.82% |
| CC(NC(=O)c1cccs1)C(=O)NCc1ccccn1 (stereo not drawn) | -2.68% |
| O=C(c1ccccc1)N1CCCC2(CCN2Cc2cccc(F)c2)C1 (stereo not drawn) | -9.02% |
| O=C1CC(c2ccncc2)c2c(c(C(=O)O)cn2-c2ccccc2)N1 (stereo not drawn) | -8.17% |
| CCc1cnc(N)nc1NC(C)c1cnn(C)c1 (stereo not drawn) | -5.96% |
| CN(CC(=O)N1CCCC1Cn1cccn1)Cc1ccccc1 (stereo not drawn) | -17.4% |
